Laboratory results published in patent US20230120564A1, “PYRIDO[3,4-D]PYRIMIDINE DERIVATIVE AND THERAPEUTIC PHARMACEUTIC COMPOSITION COMPRISING SAME” (KOREA INSTITUTE OF SCIENCE AND TECHNOLOGY, priority 2020, published 2023).

Legend:
Assay in all cases: full kinase panel biochemical assay
ABL1 = ABL1 (Homo sapiens, UniProt P00519); conditions: single concentration of 1 μM; read-out: percent inhibition of ABL1
Description: (§1) In order to measure the protein kinase inhibitory activity (% inhibition) of the compound of the present invention, biochemical assay was performed in the full kinase panel. As a test compound, Compound No. 4 was used. The percent inhibition of each kinase when treated with the test compound at a single concentration of 1 μM was measured, and the residual enzyme activity values (%) of the kinases were calculated. Kinases whose calculated residual enzyme activity values (%) was 30% or less (i.e., kinases inhibited by 70% or more) are as follows: ABL1, ABL2/ARG, ACK1, ARAF, BLK, BMX/ETK, BRAF, BRK, BTK, c-Kit, c-Src, CSK, DDR1, DDR2, EPHA1, EPHA2, EPHA3, EPHA4, EPHA5, EPHA6, EPHA7, EPHA8, EPHB1, EPHB2, EPHB3, EPHB4, ERBB2/HER2, ERBB4/HER4, FGFR1, FGFR2, FGFR3, FGR, FLT1/VEGFR1, FLT4/VEGFR3, FMS, FRK/PTK5, FYN, GCK/MAP4K2, HCK, HGK/MAP4K4, JAK1, JAK2, KDR/VEGFR2, KHS/MAP4K5, LCK, LYN, LYN B, MEKK1, MLK4, MYLK3, NEK5, P38a/MAPK14, P38b/MAPK11, PDGFRa, PDGFRb, PEAK1, RET, RIPK2, RIPK4, SIK2, SRPK1, TAOK3/JIK, TLK1, TNK1, TXK, TYK2, YES/YES1, YSK4/MAP3K19, and ZAK/MLTK.

FYN = FYN (Homo sapiens, UniProt P06241); conditions: single concentration of 1 μM; read-out: percent inhibition of FYN
Description: as §1

KHS/MAP4K5 = KHS/MAP4K5 (Homo sapiens, UniProt Q9Y4K4); conditions: single concentration of 1 μM; read-out: percent inhibition of KHS/MAP4K5
Description: as §1

ACK1 = ACK1 (Homo sapiens, UniProt Q07912); conditions: single concentration of 1 μM; read-out: percent inhibition of ACK1
Description: as §1

KDR/VEGFR2 = KDR/VEGFR2 (Homo sapiens, UniProt P35968); conditions: single concentration of 1 μM; read-out: percent inhibition of KDR/VEGFR2
Description: as §1

EPHB4 = EPHB4 (Homo sapiens, UniProt P54760); conditions: single concentration of 1 μM; read-out: percent inhibition of EPHB4
Description: as §1

EPHB1 = EPHB1 (Homo sapiens, UniProt P54762); conditions: single concentration of 1 μM; read-out: percent inhibition of EPHB1
Chain of EPHB1 (P54762 18-984): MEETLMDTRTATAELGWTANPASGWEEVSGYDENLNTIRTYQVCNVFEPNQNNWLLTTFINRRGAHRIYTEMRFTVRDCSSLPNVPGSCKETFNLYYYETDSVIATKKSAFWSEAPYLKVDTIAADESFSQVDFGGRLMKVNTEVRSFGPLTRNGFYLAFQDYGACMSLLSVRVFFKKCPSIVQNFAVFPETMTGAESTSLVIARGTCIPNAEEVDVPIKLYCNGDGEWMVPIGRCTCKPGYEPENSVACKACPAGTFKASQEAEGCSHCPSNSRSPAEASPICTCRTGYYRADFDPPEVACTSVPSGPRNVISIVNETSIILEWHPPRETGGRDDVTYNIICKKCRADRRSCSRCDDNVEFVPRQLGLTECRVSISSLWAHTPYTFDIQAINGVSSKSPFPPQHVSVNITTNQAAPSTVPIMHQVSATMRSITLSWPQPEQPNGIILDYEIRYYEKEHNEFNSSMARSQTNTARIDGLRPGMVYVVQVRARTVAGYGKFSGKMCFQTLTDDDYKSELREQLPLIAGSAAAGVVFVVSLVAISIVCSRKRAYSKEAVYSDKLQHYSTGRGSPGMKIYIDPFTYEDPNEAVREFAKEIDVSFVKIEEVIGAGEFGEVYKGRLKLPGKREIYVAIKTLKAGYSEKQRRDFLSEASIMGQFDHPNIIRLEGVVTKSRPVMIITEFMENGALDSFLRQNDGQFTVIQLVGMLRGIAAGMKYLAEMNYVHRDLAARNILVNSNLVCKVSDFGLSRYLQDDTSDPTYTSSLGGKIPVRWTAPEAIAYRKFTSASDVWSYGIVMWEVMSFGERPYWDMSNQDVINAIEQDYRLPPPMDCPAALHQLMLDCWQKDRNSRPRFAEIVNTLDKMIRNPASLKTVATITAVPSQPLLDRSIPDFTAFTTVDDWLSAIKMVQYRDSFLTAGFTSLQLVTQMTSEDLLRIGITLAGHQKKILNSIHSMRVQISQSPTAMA
Description: as §1

LYN B = LYN B (Homo sapiens, UniProt P07948); conditions: single concentration of 1 μM; read-out: percent inhibition of LYN B
Description: as §1

LCK = LCK (Homo sapiens, UniProt P06239); conditions: single concentration of 1 μM; read-out: percent inhibition of LCK
Chain of LCK (P06239 whole entry): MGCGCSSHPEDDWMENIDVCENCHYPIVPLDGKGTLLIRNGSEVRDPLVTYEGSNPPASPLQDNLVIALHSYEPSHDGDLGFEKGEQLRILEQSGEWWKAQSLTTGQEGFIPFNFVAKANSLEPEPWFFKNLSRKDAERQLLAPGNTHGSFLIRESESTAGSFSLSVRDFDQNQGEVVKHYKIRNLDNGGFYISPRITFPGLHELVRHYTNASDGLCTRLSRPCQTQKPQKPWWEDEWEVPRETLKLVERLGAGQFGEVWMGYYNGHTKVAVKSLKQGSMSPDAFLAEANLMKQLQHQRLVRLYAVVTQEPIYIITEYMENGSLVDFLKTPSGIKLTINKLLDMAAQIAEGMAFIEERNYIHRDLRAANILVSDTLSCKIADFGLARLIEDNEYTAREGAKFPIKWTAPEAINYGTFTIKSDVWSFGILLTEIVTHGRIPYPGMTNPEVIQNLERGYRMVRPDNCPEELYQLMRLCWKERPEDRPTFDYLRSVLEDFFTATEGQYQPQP
Description: as §1

FLT1/VEGFR1 = FLT1/VEGFR1 (Homo sapiens, UniProt P17948); conditions: single concentration of 1 μM; read-out: percent inhibition of FLT1/VEGFR1
Description: as §1

c-Src = c-Src (Homo sapiens, UniProt P12931); conditions: single concentration of 1 μM; read-out: percent inhibition of c-Src
Chain of c-Src (P12931 whole entry): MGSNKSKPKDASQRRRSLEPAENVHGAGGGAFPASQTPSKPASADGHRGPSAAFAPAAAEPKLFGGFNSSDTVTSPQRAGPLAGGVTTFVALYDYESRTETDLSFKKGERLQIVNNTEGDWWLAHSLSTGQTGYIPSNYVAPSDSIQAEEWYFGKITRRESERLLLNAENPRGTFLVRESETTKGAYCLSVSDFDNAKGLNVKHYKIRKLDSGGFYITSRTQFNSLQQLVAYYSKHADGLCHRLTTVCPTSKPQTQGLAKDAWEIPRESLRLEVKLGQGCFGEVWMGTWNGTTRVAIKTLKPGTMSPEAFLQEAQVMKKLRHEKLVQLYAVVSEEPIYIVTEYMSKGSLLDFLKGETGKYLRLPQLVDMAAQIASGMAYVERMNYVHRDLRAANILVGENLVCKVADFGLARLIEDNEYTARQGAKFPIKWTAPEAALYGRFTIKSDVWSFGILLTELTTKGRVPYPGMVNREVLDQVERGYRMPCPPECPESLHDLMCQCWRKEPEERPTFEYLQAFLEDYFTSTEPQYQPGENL
Description: as §1

FGFR1 = FGFR1 (Homo sapiens, UniProt P11362); conditions: single concentration of 1 μM; read-out: percent inhibition of FGFR1
Description: as §1

EPHA8 = EPHA8 (Homo sapiens, UniProt P29322); conditions: single concentration of 1 μM; read-out: percent inhibition of EPHA8
Description: as §1

P38a/MAPK14 = P38a/MAPK14 (Homo sapiens, UniProt Q16539); conditions: single concentration of 1 μM; read-out: percent inhibition of P38a/MAPK14
Description: as §1

JAK1 = JAK1 (Homo sapiens, UniProt P23458); conditions: single concentration of 1 μM; read-out: percent inhibition of JAK1
Chain of JAK1 (P23458 whole entry): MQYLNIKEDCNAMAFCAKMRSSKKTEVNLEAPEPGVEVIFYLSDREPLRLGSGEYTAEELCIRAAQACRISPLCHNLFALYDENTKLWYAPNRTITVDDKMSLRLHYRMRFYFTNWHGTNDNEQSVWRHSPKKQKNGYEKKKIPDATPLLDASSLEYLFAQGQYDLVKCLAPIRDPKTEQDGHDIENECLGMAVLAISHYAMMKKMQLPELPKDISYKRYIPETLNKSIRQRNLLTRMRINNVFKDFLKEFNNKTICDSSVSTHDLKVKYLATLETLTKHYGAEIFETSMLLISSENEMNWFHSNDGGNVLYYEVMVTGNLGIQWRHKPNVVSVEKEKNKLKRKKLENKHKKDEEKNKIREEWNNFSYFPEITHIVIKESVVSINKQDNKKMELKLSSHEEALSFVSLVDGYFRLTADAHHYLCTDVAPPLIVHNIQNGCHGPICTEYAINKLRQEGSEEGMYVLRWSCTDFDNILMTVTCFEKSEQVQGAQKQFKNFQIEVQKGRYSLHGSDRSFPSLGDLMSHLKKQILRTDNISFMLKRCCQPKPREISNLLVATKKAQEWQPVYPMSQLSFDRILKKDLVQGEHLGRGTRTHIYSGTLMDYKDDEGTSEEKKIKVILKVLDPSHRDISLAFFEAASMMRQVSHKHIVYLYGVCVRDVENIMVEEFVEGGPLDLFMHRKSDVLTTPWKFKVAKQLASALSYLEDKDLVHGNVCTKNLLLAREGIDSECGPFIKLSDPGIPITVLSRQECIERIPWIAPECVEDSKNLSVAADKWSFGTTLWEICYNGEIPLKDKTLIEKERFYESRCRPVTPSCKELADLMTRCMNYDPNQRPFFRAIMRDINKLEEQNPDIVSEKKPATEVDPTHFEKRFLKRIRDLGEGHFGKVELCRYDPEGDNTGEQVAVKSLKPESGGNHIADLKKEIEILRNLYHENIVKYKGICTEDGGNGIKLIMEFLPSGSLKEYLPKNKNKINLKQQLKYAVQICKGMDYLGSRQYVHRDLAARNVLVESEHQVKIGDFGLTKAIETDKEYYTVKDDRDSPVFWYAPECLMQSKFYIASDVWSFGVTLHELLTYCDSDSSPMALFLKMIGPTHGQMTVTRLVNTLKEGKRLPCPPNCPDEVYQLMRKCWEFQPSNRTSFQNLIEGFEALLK
Description: as §1

ARAF = ARAF (Homo sapiens, UniProt P10398); conditions: single concentration of 1 μM; read-out: percent inhibition of ARAF
Description: as §1

EPHA7 = EPHA7 (Homo sapiens, UniProt Q15375); conditions: single concentration of 1 μM; read-out: percent inhibition of EPHA7
Chain of EPHA7 (Q15375 28-998): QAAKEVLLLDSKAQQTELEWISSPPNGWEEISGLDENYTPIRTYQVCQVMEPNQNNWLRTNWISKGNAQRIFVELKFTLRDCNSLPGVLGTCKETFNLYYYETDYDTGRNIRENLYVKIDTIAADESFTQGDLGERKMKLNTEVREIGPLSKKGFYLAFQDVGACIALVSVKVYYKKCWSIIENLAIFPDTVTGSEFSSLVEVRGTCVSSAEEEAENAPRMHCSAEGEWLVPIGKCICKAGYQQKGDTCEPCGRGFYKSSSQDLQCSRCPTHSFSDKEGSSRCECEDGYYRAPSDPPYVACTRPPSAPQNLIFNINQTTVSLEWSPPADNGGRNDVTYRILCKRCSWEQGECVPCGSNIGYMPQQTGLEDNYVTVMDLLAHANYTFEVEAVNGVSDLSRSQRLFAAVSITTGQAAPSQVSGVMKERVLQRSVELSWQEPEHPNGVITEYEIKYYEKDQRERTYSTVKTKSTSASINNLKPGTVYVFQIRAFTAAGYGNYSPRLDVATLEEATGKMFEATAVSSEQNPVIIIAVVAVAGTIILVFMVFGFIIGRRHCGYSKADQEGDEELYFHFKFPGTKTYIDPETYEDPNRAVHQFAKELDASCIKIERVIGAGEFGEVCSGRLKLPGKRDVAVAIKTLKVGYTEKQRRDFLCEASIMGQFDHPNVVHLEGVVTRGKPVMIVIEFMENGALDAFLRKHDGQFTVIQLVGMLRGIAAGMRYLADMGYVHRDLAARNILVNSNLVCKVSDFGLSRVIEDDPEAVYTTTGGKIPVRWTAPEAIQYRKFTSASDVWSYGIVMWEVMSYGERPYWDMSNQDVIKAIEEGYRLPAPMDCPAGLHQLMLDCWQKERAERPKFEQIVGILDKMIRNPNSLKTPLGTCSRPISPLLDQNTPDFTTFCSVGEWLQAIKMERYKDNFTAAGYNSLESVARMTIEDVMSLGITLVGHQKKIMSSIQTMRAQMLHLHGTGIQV
Description: as §1

SRPK1 = SRPK1 (Homo sapiens, UniProt Q96SB4); conditions: single concentration of 1 μM; read-out: percent inhibition of SRPK1
Chain of SRPK1 (Q96SB4 whole entry): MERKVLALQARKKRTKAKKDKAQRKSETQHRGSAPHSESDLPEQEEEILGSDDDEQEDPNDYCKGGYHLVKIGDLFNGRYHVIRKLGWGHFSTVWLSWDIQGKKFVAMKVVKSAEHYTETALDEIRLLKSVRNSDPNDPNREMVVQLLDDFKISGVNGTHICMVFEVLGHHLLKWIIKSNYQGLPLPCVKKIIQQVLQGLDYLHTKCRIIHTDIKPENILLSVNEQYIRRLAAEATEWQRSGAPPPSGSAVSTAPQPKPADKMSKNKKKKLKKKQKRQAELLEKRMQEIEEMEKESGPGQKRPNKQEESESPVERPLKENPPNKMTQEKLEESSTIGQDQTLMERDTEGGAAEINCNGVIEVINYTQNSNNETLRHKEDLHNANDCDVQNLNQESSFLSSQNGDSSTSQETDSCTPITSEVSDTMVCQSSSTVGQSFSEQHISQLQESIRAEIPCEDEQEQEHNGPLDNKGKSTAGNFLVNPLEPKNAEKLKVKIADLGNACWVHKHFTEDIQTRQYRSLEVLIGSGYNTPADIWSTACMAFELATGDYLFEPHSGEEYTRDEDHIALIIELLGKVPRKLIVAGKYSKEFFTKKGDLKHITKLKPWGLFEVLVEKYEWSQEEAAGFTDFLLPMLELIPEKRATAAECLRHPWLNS
Description: as §1

ERBB4/HER4 = ERBB4/HER4 (Homo sapiens, UniProt Q15303); conditions: single concentration of 1 μM; read-out: percent inhibition of ERBB4/HER4
Description: as §1

TNK1 = TNK1 (Homo sapiens, UniProt Q13470); conditions: single concentration of 1 μM; read-out: percent inhibition of TNK1
Description: as §1

EPHA3 = EPHA3 (Homo sapiens, UniProt P29320); conditions: single concentration of 1 μM; read-out: percent inhibition of EPHA3
Description: as §1

c-Kit = c-Kit (Homo sapiens, UniProt P10721); conditions: single concentration of 1 μM; read-out: percent inhibition of c-Kit
Description: as §1

EPHA1 = EPHA1 (Homo sapiens, UniProt P21709); conditions: single concentration of 1 μM; read-out: percent inhibition of EPHA1
Description: as §1

MLK4 = MLK4 (Homo sapiens, UniProt Q5TCX8); conditions: single concentration of 1 μM; read-out: percent inhibition of MLK4
Description: as §1

Measured: inhibition at 1 µM

Cc1ccc(Nc2ncc3cc(-c4cc(NC(=O)c5cccc(C(F)(F)F)c5)ccc4C)ncc3n2)cn1 [Compound No. 4, N-(4-methyl-3-(2-((6-methylpyridin-3-yl)amino)pyrido[3,4-d]pyrimidin-6-yl)phenyl)-3-(trifluoromethyl)benzamide]
≥ 70%: all assays above
